Laboratory results: patent US20250057808A1, “COMPOSITION COMPRISING BETA LACTAM FOR TREATING ALCOHOL DEPENDENCE AND ALCOHOL ASSOCIATED DISEASES OR CONDITIONS” (Temple University of the Commonwealth System of Higher …, priority 2023, published 2025)
“Also recorded” adds a separate entry of the source. Read-outs that look alike come from different tables or passages of the source.

What was measured:
[1] = cited from earlier work
HMGβ-1 = test: Western blot HMGβ-1 in subregions of mPFC and NAc; type: in vivo, Male P rats
Experimental: All P rats were euthanized by CO2 inhalation and decapitated with a guillotine 24 hours after the final i.p. injection was administered on Day 6 of Week 6. Brains were removed and immediately frozen on dry ice and stored at −80° C. The mPFC subregions (infralimbic cortex and prelimbic cortex) and NAc subregions (core and shell) were dissected using a cryostat machine kept at −20° C. Surgical blades were used to dissect all brain regions following visualized landmarks using the stereotaxic coordinates provided by Paxinos and colleague's rat brain stereotactic atlas. All brain regions were stored in −80° C. Western Blot analyses.
Western blot was performed to determine the expression of BDNF, TNF-α, RAGE, HMGβ-1, and β-tubulin in the subregions of mPFC and NAc as preformed in previous studies.
Brain samples were lysed with a lysing buffer containing protease inhibitors. The amount of protein in each sample was quantified using a detergent compatible protein assay (Bio-Rad, Hercules, CA, USA). Polyacrylamide gels (10%) were loaded with the lysate mixture, and proteins were separated using gel electrophoresis for 1 hour. Proteins were then transferred from the gels onto Polyvinylidene difluoride (PVDF) membranes (BioRad). After transfer, membranes were incubated for 30 minutes in a mixture of nonfat milk in 1×Tris-buffered saline with Tween-20 (TBST) at room temperature. Membranes were then incubated at 4° C. for 24 hours with primary antibodies: anti-rabbit BDNF (1:1000, Abeam, #ab108319), anti-rabbit TNF-α (1:500, Abeam, #ab9739), anti-rabbit HMGβ-1 (1:500, Abeam, #ab18256), and anti-rabbit RAGE (1:1000, Abeam, #ab37407). Anti-mouse-β-tubulin (1:1000, Cell Signaling Technology, #D71G9) was used as a loading control antibody. After incubating for 24 hours, secondary antibody such as donkey anti-rabbit (1:4000, Invitrogen, #31458) or anti-mouse (1:4000, Cell Signaling, #7076S) was added to the membrane for 1 hour at room temperature. The membranes were then washed with 1×TBST three times for 5 minutes each and then dried. Membranes were then incubated in chemiluminescent reagents (Super Signal West Pico, Pierce Inc.) for 2 minutes. Blot images were developed using ChemiDoc. Imaging System and ImageJ software version 1.53a were used to quantify and analyze the expression of BDNF, TNF-α, RAGE, HMGβ-1, and β-tubulin.
The data for the water/saline control group were expressed as 100% based on the values corresponding to the ethanol/saline and ethanol/MC-100093 groups for each set of blotting. Thus, the expression of selected proteins for each group (ethanol/saline group or ethanol/MC-100093 group) was calculated relative to the water/saline control group being set to 100%.
Statistical analyses were performed using GraphPad Prism Version 10. Two-way repeated measures ANOVA followed by Bonferroni post-hoc tests were used to compare water and ethanol intake, and body weight, amongst water group, ethanol/saline group and ethanol/MC-100093 group. A one-way ANOVA test was performed to compare the expression of the studied proteins in selected brain regions in water/saline, ethanol/saline and ethanol/MC-100093 groups. Statistical significance was determined by a p-value of or less than 0.05.

[2] = Ethanol drinking, further studies with MC-100093 100 mg/kg; type: in vivo, Male P rats
Experimental: We used an ethanol drinking paradigm as described previously by Alhaddad, et al. (2014). Briefly, animals started the experimental drinking procedure at age of 90 days. The animals had five weeks of exposure to continuous three-bottle choice drinking, 0%, 15% and 30%, v/v ethanol in water, available concurrently. Daily measurement of ethanol intake was performed (g of ethanol intake/kg of body weight/day). We measured the baseline ethanol drinking by average the intake during the last three weeks. Three groups of P rats (n=8-9/group) exposed to the five weeks ethanol exposure. At week 6, rats in each group received daily intraperitoneal injection of either MC-100093 at dose of 50 mg/kg (Ethanol-MC group), Ceftriaxone at dose of 200 mg/kg (Ethanol-CEF group, which also serves as positive control), or equivolume of saline vehicle (Ethanol group) for five days. This paradigm results in pharmacologically relevant blood alcohol concentration (50-200 mg %). Following the criteria for the development of ethanol dependence, rats whose average ethanol intake <4 g/kg/day were excluded from the study. Beside the ethanol exposed groups, another group of P rats (n=8) exposed to only water and food throughout the exposure procedures (control group).
Further studies were conducted to investigate the impact of MC-100093 at higher dose (100 mg/kg, i.p.) on ethanol consumption and glutamate transporter 1 (GLT-1) expression in medial prefrontal cortex (mPFC) subregions such as prelimbic mPFC (PL) and infralimbic mPFC (IL). Male P rats (n=16) were divided in three groups: a) Control water group was exposed to water only for 5 weeks and received i.p. saline on Week 6 for 5 days; b) Saline group was exposed to free choice of ethanol (15% and 30% and water) for 5 weeks, and received saline (i.p.) on Week 6 for 5 days; and c) MC-100093 group was exposed to free choice of ethanol for 5 weeks and received MC-100093 (100 mg/kg/day, i.p.) for 5 days on Week 6.

fat content in the liver = test: Liver Oil Red O staining (fat content); type: in vivo, P rats; conditions: MC-100093 50 mg/kg or ceftriaxone 200 mg/kg i.p. 5 days, control, ethanol, ethanol-CEF groups
Experimental: To measure the fat content in the liver sections, we used Oil Red O (Sigma, CAS Number 1320-06-5) staining on 10 μm thick formalin-fixed liver sections and placed in slides for further staining. The slides were stained with freshly prepared Oil Red O working solution 15 minutes then rinsed with 60% isopropanol. Slides were then rinsed with distilled water and mounted in aqueous mounting media and prepared for imaging. The degree of Oil Red O staining was determined at 20× magnification using a color video camera attached to an Olympus VS120 slide scanning microscope. Olympus OlyVIA software was used to analyze the images. The lipid droplets were quantified using Image J pro (NIH). Data are presented as the mean+SEM of the Oil Red O staining for each group.
All statistical analyses were conducted with Graphpad Prism software, with p-values of 0.05 or less being statistically significant. We performed a two-way (mixed model) ANOVA followed by Bonferroni multiple comparison post-hoc test to analyze 24 h ethanol consumption, 24 h water consumption, and daily body weight. For the Western blot and oil red O staining analysis, we performed one-way ANOVA with Newman-Keuls as a post hoc multiple comparison test to measure differences between groups as a percentage (relative to control values).

[3] = 100 mg/kg i.p., compared to ethanol/saline group

C[C@@H](O)[C@H]1C(=O)N[C@@H]1[C@@H](C)C(=O)N1CCN(C)CC1 [MC-100093]
Brain/plasma ratio ([1]; after intraperitoneal (i.p) injection): 14% | Oral bioavailability (in words) ([1]; following oral administration): orally bioavailable; also recorded: high oral bioavailability; also recorded: some bioavailability | In vivo half-life ([1]; intraperitoneal route): 4.2 h | In vivo half-life ([1]; oral route): 5.26 h | Oxidative metabolism ([1]; rat, in vivo): no oxidative metabolism | Oral bioavailability (F) ([1]; rats): 28% | HMGβ-1 expression in the NAc shell (HMGβ-1; 100 mg/kg i.p., compared to ethanol group): decreased the expression of HMGβ-1 | HMGβ-1 expression in the IL (HMGβ-1; [3]): decreased HMGβ-1 expression | HMGβ-1 expression in the NAc core (HMGβ-1; [3]): decreased the expression of HMGβ-1 | HMGβ-1 expression in the PL (HMGβ-1; [3]): decreased the expression of HMGβ-1 | HMGβ-1 expression in IL, PL, NAc core and NAc shell (summary) (HMGβ-1; post-treatment with MC-100093 100 mg/kg i.p., 100 mg/kg): normalized HMGβ-1 expression in all these brain regions; also recorded: attenuated ethanol-induced upregulation of pro-inflammatory cytokines such as TNF-a and HMGB1 | Reduction in ethanol consumption as compared to control vehicle group ([2]; MC-100093 100 mg/kg i.p.): about 50% | Body weight (grams) ([2]; MC-100093 100 mg/kg i.p. 5 days): no significant effects | Water intake (mL/day) ([2]; MC-100093 100 mg/kg i.p. 5 days, vs ethanol/saline, 100 mg/kg): significant increase in water intake; also recorded: increase in water consumption was observed on Days 1-5 | Ethanol consumption (g/kg/24 hr) ([2]; male P rats, MC-100093 100 mg/kg i.p. 5 days on Week 6, vs ethanol/saline, 100 mg/kg): attenuated ethanol intake; also recorded: significantly reduced ethanol consumption on Day 1, 3, 4, and 5; also recorded: reduced ethanol intake on Days 2, 4, 5, 6; also recorded: effect similar to that of ceftriaxone | Ethanol preference ([2]; male P rats, MC-100093 100 mg/kg/day i.p. 5 days): decreased ethanol preference | Liver fat content (Oil Red O stained fat droplets) (fat content in the liver): no significant difference in fat content between control, ethanol-MC, and ethanol-CEF groups; also recorded: significantly higher fat droplet content in ethanol group (p<0.05) compared to control, ethanol-MC or ethanol-CEF groups; also recorded: alleviated the liver steatosis
